Measurements published in patent US5700801A, “Piperazine derivatives, pharmaceutical compositions containing these compounds, their use and processes for preparing them” (Karl Thomae, GmbH, priority 1994, dated 1997).
Where a name gives a salt, the structure may show the parent alone.

Experiments:
human thrombocytes = test: Inhibition of binding of ^3 H-BIBU 52 to human thrombocytes (table: Fibrinogen binding test); conditions: ^3 H-BIBU 52 (5 nM), human thrombocytes in plasma, ambient temperature, 20 minutes
Method: 1. Inhibition of binding of ^3 H-BIBU 52 to human thrombocytes:
A suspension of human thrombocytes in plasma is incubated with ^3 H-BIBU 52 [=(3S,5S)-5-[(4'-amidino-4-biphenylyl)oxymethyl]-3-[(carboxyl)methyl]-2-pyrrolidinone[3-^3 H-4-biphenylyl]] (see DE-A-4,214,245), which replaces the ^125 I fibrinogen ligand known from the literature, and various concentrations of the substance to be tested. The free and bound ligand is separated by centrifuging and quantified by scintillation counting. The inhibition of ^3 H-BIBU 52 binding by the test substance is determined from the measurements obtained.
In order to do this, donor blood is taken from an anticubital vein and anticoagulated with trisodium citrate (final concentration 13 mM). The blood is centrifuged for 10 minutes at 170×g and the supernatant platelet-rich plasma (PRP) is removed. The remaining blood is vigorously centrifuged once more in order to obtain plasma. The PRP is diluted 1:10 with autologous plasma. 750 μl are incubated with 50 μl of physiological saline solution, 100 μl of test substance solution, 50 μl of ^14 C-sucrose (3,700 Bq) and 50 μl of ^3 H-BIBU 52 (final concentration: 5 nM) at ambient temperature for 20 minutes. In order to measure the non-specific binding, 5 μl of BIBU 52 (final concentration: 30 μM) are used instead of the test substance. The samples are centrifuged for 20 seconds at 10,000×g and the supernatant is poured off. 100 μl thereof are counted in order to determine the amount of free ligand. The pellet is dissolved in 500 μl of 0.2N NaOH, 450 μl are mixed with 2 ml of scintillator and 25 μl of 5N HCl and measured. The residual plasma remaining in the pellet is determined from the ^14 C-content and the bound ligand is determined from the ^3 H-measurement. After the non-specific binding has been deducted, the pellet activity is plotted against the concentration of the test substance and the concentration for a 50% inhibition of binding is determined.

[1] = test system: thrombocyte aggregation in platelet-rich plasma taken from healthy volunteers; test: Antithrombotic activity: inhibition of collagen-induced platelet aggregation (Born and Cross) in platelet-rich plasma; format: cell-based; conditions: Homo sapiens, 10 minutes preincubation at 37° C.
Method: 2. Antithrombotic activity
The thrombocyte aggregation is measured using the method of Born and Cross (J. Physiol. 170: 397 (1964)) in platelet-rich plasma taken from healthy volunteers. To inhibit coagulation, the blood is mixed with 3.14% sodium citrate in a volume ratio of 1:10.
Collagen-induced aggregation
The pattern of the decrease in optical density of the platelet suspension is photometrically measured and recorded after the addition of the aggregation-triggering substance. The rate of aggregation is determined from the angle of inclination of the density curve. The point on the curve where there is maximum light transmittance is used to calculate the optical density.
The concentration of collagen used is as small as possible but sufficient to produce an irreversible reaction curve. Standard commercial collagen produced by Hormonchemie of Munich is used.
Before the addition of the collagen the plasma is incubated for 10 minutes with the substance at 37° C.
From the measurements obtained the EC50 is determined, which indicates the concentration giving a 50% change in the optical density in terms of the inhibition of aggregation.

Question: Which IC50 (human thrombocytes) does the source give for O=C(CC(=O)N1CCN(c2ccncc2)CC1)N[C@H]1CC[C@H](C(=O)O)CC1 [5(7), [4-trans-[4-(4-Pyridyl)-piperazin-1-yl]malonylamino]cyclohexylcarboxylic a cid hydrochloride] here?
Answer: Its IC50 is 0.23 nM.

Question: And the EC50 [1]?
Answer: The EC50 was 0.25 nM.

Question: Which IC50 (human thrombocytes) does the source give for COC(=O)[C@H]1CC[C@H](NC(=O)CCN2CCN(c3ccncc3)CC2)CC1 [Example 1, Methyl[4-trans-[3-[4-(4-pyridyl)-piperazin-1-yl]propionyl]-amino]cyclohexane carboxylate] here?
Answer: Its IC50 is greater than 100 nM.

Question: And the EC50 [1]?
Answer: Its EC50 is 3.32 nM.

Question: How did the IC50 (human thrombocytes) turn out when O=C(O)CCN1CCC(NC(=O)N2CCN(c3ccncc3)CC2)CC1 [5(8), 3-[4-[4-(4-pyridyl)-piperazin-1-yl]carbonylamino]piperidinopropionic acid dihydrochloride] was run?
Answer: The IC50 was 0.41 nM.

Question: What about the EC50 [1] of the same compound?
Answer: Its EC50 is 0.6 nM.

Question: Which results are given for O=C(O)CC[C@H]1CC[C@H](NC(=O)N2CCN(c3ccncc3)CC2)CC1 [5(6), 3-[4-trans-[4-(4-Pyridyl)-piperazin-1-yl]carbonylamino]cyclohexylpropionicacid hydrochloride]?
Answer: IC50 (human thrombocytes): 0.25 nM; EC50 [1]: 0.16 nM

Question: O=C(CCN1CCN(c2ccncc2)CC1)N[C@H]1CC[C@H](C(=O)O)CC1 [Example 5, [4-trans-[3-[4-(4-Pyridyl)-piperazin-1-yl]propionyl]amino]-cyclohexane-carboxylic acid dihydrochloride] was tested. Which IC50 (human thrombocytes) did it give?
Answer: The IC50 was 0.21 nM.

Question: What about the EC50 [1] of the same compound?
Answer: The EC50 was 0.26 nM.

Question: Which results are given for O=C(O)CN1CCC(NC(=O)N2CCN(c3ccncc3)CC2)CC1 [5(9), [4-[4-(4-Pyridyl)-piperazin-1-yl]carbonylamino]piperidino-acetic acid]?
Answer: IC50 (human thrombocytes): 0.43 nM; EC50 [1]: 4.4 nM
